Converted amounts (≈) assume the structure as drawn. The source made the active and inactive calls. The rule behind the calls is not given here.
Test system: Mycobacterium tuberculosis
Experiment: Antimicrobial activity against Mycobacterium bovis BCG 1173P2 after 8 days
Format: functional
Settings: variant bovis BCG; for MIC50: 192 h

For `NC(=O)CCCCCc1ccc(Cn2cc(Br)c(=O)[nH]c2=O)cc1`, the Activity was “inactive”.

Molecule `NC(=O)CCCCCc1ccc(Cn2cc(Cl)c(=O)[nH]c2=O)cc1` has an MIC50 of 288 µg/mL (≈ 823 µM).

With `Cc1cn(Cc2ccc(CCCCCC(=O)O)cc2)c(=O)[nH]c1=O` the MIC50 was 195 µg/mL (≈ 590 µM).

`Cc1cn([C@H]2C[C@H](O)[C@@H](CO)O2)c(=O)[nH]c1=O` [DOXRIBTIMINE] was tested, and the Activity was “inactive”.

`O=C(O)CCCCCc1ccc(Cn2cc(Cl)c(=O)[nH]c2=O)cc1` showed an MIC50 of 125 µg/mL (≈ 356 µM).

With `CCCCc1ccc(Cn2cc(Br)c(=O)[nH]c2=O)cc1` the Activity was “inactive”.

`COC(=O)CCCc1ccc(Cn2cc(Cl)c(=O)[nH]c2=O)cc1` gave an MIC50 of 260 µg/mL (≈ 772 µM).

In the case of `Cc1cn(Cc2ccc(CCCCC(N)=O)cc2)c(=O)[nH]c1=O`, the Activity is reported as “inactive”.

Molecule `O=C(O)CCCc1ccc(Cn2cc(Br)c(=O)[nH]c2=O)cc1` has an MIC50 of 50 µg/mL (≈ 136 µM).

For `O=C(O)CCCc1ccc(Cn2cc(Cl)c(=O)[nH]c2=O)cc1`, the MIC50 was 45 µg/mL (≈ 139 µM).

`Cc1cn(Cc2ccc(Br)cc2)c(=O)[nH]c1=O` was tested, and the Activity was “inactive”.

Molecule `Cc1cn(Cc2ccc(CCCCCC(N)=O)cc2)c(=O)[nH]c1=O` has an MIC50 of 230 µg/mL (≈ 698 µM).

`O=C(O)CCCCc1ccc(Cn2cc(Br)c(=O)[nH]c2=O)cc1` showed an MIC50 of 100 µg/mL (≈ 262 µM).

`Cc1cn(Cc2ccc(C#CCCCC(=O)O)cc2)c(=O)[nH]c1=O` gave an MIC50 of 150 µg/mL (≈ 460 µM).

With `COC(=O)CCCc1ccc(Cn2cc(Br)c(=O)[nH]c2=O)cc1` the MIC50 was 180 µg/mL (≈ 472 µM).

In the case of `CCCCc1ccc(Cn2cc(Cl)c(=O)[nH]c2=O)cc1`, the Activity is reported as “inactive”.

In the case of `NC(=O)CCCc1ccc(Cn2ccc(=O)[nH]c2=O)cc1`, the MIC50 is reported as 270 µg/mL (≈ 940 µM).

Molecule `Cc1cn(Cc2ccc(CCCCC(=O)O)cc2)c(=O)[nH]c1=O` has an MIC50 of 120 µg/mL (≈ 379 µM).

With `CCCCCCc1ccc(Cn2cc(Br)c(=O)[nH]c2=O)cc1` the Activity was “inactive”.

For `NC(=O)CCCCc1ccc(Cn2cc(Br)c(=O)[nH]c2=O)cc1`, the Activity was “inactive”.

`Cc1cn(Cc2ccc(CCCCO)cc2)c(=O)[nH]c1=O` was tested, and the MIC50 was 365 µg/mL (≈ 1270 µM).

Work on `O=C(O)CCCCCc1ccc(Cn2cc(Br)c(=O)[nH]c2=O)cc1` yielded an MIC50 of 80 µg/mL (≈ 202 µM).

`NC(=O)CCCc1ccc(Cn2cc(Cl)c(=O)[nH]c2=O)cc1` was tested, and the MIC50 was 51 µg/mL (≈ 159 µM).

With `O=C(O)CCCc1ccc(Cn2ccc(=O)[nH]c2=O)cc1` the MIC50 was 225 µg/mL (≈ 780 µM).

Work on `NC(=O)CCCc1ccc(Cn2cc(Br)c(=O)[nH]c2=O)cc1` yielded an MIC50 of 55 µg/mL (≈ 150 µM).

For `CCCCCCc1ccc(Cn2cc(Cl)c(=O)[nH]c2=O)cc1`, the Activity was “inactive”.

For `O=c1[nH]c(=O)n([C@H]2C[C@H](O)[C@@H](CO)O2)cc1Br` [BROXURIDINE], the Activity was “inactive”.

`O=C(O)CCCCc1ccc(Cn2cc(Cl)c(=O)[nH]c2=O)cc1` gave an MIC50 of 120 µg/mL (≈ 356 µM).
